Measured values reported in paper PMC8344022, “Small-molecule inhibitor of AF9/ENL-DOT1L/AF4/AFF4 interactions suppresses malignant gene expression and tumor growth” (Theranostics, 2021).

What was measured:
THP-1 cells = system: THP-1 cells; design: method as in earlier work; conditions: read-out: Cytotoxicity EC50; cited from earlier work
Kasumi-1 cells = system: Kasumi-1 cells; design: method as in earlier work; conditions: read-out: Cytotoxicity EC50; cited from earlier work
[1] = system: H3K79me2 at gene promoters in Molm-13 cells; assay: Chromatin immunoprecipitation (ChIP)-qPCR; format: cell-based; conditions: 2 μM
Method: (§1) Next, compound 1 was tested for its ability to change expression of characteristic MLL-r leukemia genes HoxA9, Meis1 and Myc. Myc is also overexpressed in a broad range of AML and other cancers. […] (Figure S5), presumably because SEC is not recruited there.
Chromatin immunoprecipitation. […] Cells were lysed with nuclear lysis buffer and sonicated to ~100-1000 bp fragments, which was incubated at 4 °C overnight with the H3K79me2 antibody (#5427, Cell signaling) and IgG (C15410206, Diagenode). Protein A/G Magnetic Beads (10 µL, Novus Biologicals) were added and incubated for 2 h. The beads were washed 3x with RIPA buffer and 2x with TE buffer. DNA on the beads was eluted for 2 hours at 68 °C in 100 μL of an elution buffer (20 mM Tris pH 7.5, 5 mM EDTA, 50 mM NaCl, 1% SDS, 50 μg/ml proteinase K) (2x), and purified using a ChIP DNA Clean & Concentrator kit (Novus Biologicals). qPCR was done using the method described above.

[2] = system: nuclear protein levels in Molm-13 cells; assay: Western blot of nuclear proteins; format: cell-based; conditions: 3 days
Method: Next, we investigated how compound 1 affects these transcription cofactors in the nucleus, where they regulate gene expression. […] DOT1L inhibitor EPZ4777 [25] reduced the methylation levels of H3K79, but not other proteins (Figure 3B). […] In this regard, despite lack of activity against DOT1L, compound 1 can mimic EPZ4777 to reduce H3K79 methylation.
Western blot. 3x10^6 cells/well were treated with increasing concentrations of a compound for 3 days and nuclear proteins extracted with the EpiQuik Nuclear Extraction Kit (Epigentek) according to the manufacturer's protocol. Equal amounts of proteins were separated on SDS-PAGE and transferred to PVDF membranes. The blots were probed with primary antibodies, followed by anti-rabbit or anti-mouse IgG (Thermo Scientific) secondary antibodies. The primary antibodies used in this research were MBP Mouse mAb (#2396, Cell signaling), DOT1L Rabbit mAb (#77087, Cell signaling), MLL-N Rabbit mAb (#14689, Cell signaling), ENL Rabbit mAb (#14893, Cell signaling), Di-Methyl-Histone H3K79 Rabbit mAb (#5427, Cell signaling), Mono-Methyl-Histone H3K79 Rabbit mAb (#9398, Cell signaling), Histone H3 Rabbit mAb (#4499, Cell signaling), AF4 Rabbit pAb (#NBP1-28705, Novusbio) and AFF4 Rabbit pAb (#ab103586, Abcam).

MCF-7 cells = assay: Antiproliferation assay (MTT); format: cell-based; conditions: 14-day incubation, read-out: Cytotoxicity EC50
Method: (§2) Antiproliferation assay. Proliferation inhibition assays for suspension blood cancer cells were performed using an XTT assay kit (Roche). Proliferation inhibition assays for solid tumor cell lines MCF-7, MDA-MB-231, Panc1, Panc28 were performed using an MTT assay (Sigma). The antiproliferation EC50 values were determined using Prism 5 and the reported results were the mean values of at least three independent experiments. The incubation time for compound 1 was 7 days and that for EPZ4777 was 14 days.

Panc-1 cells = assay: Antiproliferation assay (MTT); format: cell-based; conditions: 14-day incubation, read-out: Cytotoxicity EC50
Method: as §2

Panc-28 cells = assay: Antiproliferation assay (MTT); format: cell-based; conditions: 14-day incubation, read-out: Cytotoxicity EC50
Method: as §2

MDA-MB-231 cells = assay: Antiproliferation assay (MTT); format: cell-based; conditions: 14-day incubation, read-out: Cytotoxicity EC50
Method: as §2

U266 cells = assay: Antiproliferation assay (XTT); format: cell-based; conditions: 14-day incubation, read-out: Cytotoxicity EC50
Method: as §2

MV4;11 cells = assay: Antiproliferation assay (XTT); format: cell-based; conditions: 14-day incubation, read-out: Cytotoxicity EC50
Method: as §2

Molm-13 cells = assay: Antiproliferation assay (XTT); format: cell-based; conditions: 14-day incubation, read-out: Cytotoxicity EC50
Method: as §2

RPMI-8226 cells = assay: Antiproliferation assay (XTT); format: cell-based; conditions: 14-day incubation, read-out: Cytotoxicity EC50
Method: as §2

Jurkat cells = system: Jurkat cells; design: method as in earlier work; conditions: read-out: Cytotoxicity EC50; cited from earlier work
HL60 cells = system: HL60 cells; design: method as in earlier work; conditions: read-out: Cytotoxicity EC50; cited from earlier work
[3] = system: HoxA9, Meis1 and Myc expression in MV4;11 cells; assay: qPCR of MLL target genes; format: cell-based; conditions: 4 days
Method: as §1
(§3) RNA extraction and Quantitative real-time PCR (qPCR). 10^5 cells/ml were incubated with a compound for 4 days and the RNA was extracted using RNeasy mini kit (#74104, Qiagen). 100-1000 ng of total RNA was reverse transcribed using iScript™ Reverse Transcription Supermix (Bio-Rad) using the manufacturer's protocol. Quantitative real-time PCR was carried out using Fast SYBR Green Master Mix (Applied Biosystems) according to the manufacturer's instructions. Measurements were performed in triplicate, using GAPDH as the reference gene. Real-time PCR was performed using Biosystems Step One Plus detection system. The following sequences of primers are used: […]

[4] = system: HoxA9, Meis1 and Myc expression in Molm-13 cells; assay: qPCR of MLL target genes; format: cell-based; conditions: 4 days
Method: as §1, §3

CC(C)N(CCCNC(=O)Nc1ccc(C(C)(C)C)cc1)C[C@H]1O[C@@H](n2ccc3c(N)ncnc32)[C@H](O)[C@@H]1O [EPZ4777, reference compound]
EC50 (THP-1 cells): 3.4 µM | EC50 (Kasumi-1 cells): 33 µM | H3K79me2 in the gene promoters of HoxA9 and Myc [1]: decreased levels of H3K79me2 | Nuclear levels of DOT1L, H3K79me1 and me2, ENL and AFF4 [2]: only reduced those of H3K79me1 and me2, but not other proteins | EC50 (MCF-7 cells): > 50 µM | EC50 (Panc-1 cells): > 50 µM | EC50 (Panc-28 cells): > 50 µM | EC50 (MDA-MB-231 cells): > 50 µM | EC50 (U266 cells): > 50 µM | EC50 (MV4;11 cells): 1.1 ± 0.3 µM | EC50 (Molm-13 cells): 1.2 ± 0.2 µM | EC50 (RPMI-8226 cells): > 50 µM | EC50 (Jurkat cells): > 50 µM | EC50 (HL60 cells): > 50 µM | Expression of MLL target genes HoxA9, Meis1 and Myc [3]: behaved similarly | Expression of MLL target genes HoxA9, Meis1 and Myc [4]: behaved similarly
